Measured values as given in ChEMBL document CHEMBL1131433, “The bioactive conformation of aminoalkylindoles at the cannabinoid CB1 and CB2 receptors: insights gained from (E)- and (Z)-naphthylidene indenes” (J Med Chem, 1998).

Organism: Cavia porcellus
Assay: Compound was evaluated for inhibition of electrically evoked contractions of the myenteric plexus-longitudinal muscle of the Guinea pig small intestine
Type: functional
Conditions: Muscle tissue

| Structure (SMILES) | EC50 |
| --- | --- |
| CC1=C(CCN2CCOCC2)c2ccccc2C1=Cc1cccc2ccccc12 [listing 1 of 2 here] | 52.9 nM |
| C1=C(CCN2CCOCC2)c2ccccc2/C1=C/c1cccc2ccccc12 | 6.57 nM |
| C1=C(CCN2CCOCC2)c2ccccc2/C1=C\c1cccc2ccccc12 | 283 nM |
| CC1=C(CCN2CCOCC2)c2ccccc2C1=Cc1cccc2ccccc12 [listing 2 of 2 here] | > 3160 nM |
| Cc1c(C(=O)c2cccc3ccccc23)c2cccc3c2n1[C@H](CN1CCOCC1)CO3 [WIN-552122] | 4.92 nM |

Organism: Cavia porcellus
Assay: Compound was evaluated for maximum inhibition of electrically evoked contractions of the myenteric plexus-longitudinal muscle of the Guinea pig small intestine
Type: functional
Conditions: Muscle tissue

| Structure (SMILES) | Emax |
| --- | --- |
| Cc1c(C(=O)c2cccc3ccccc23)c2cccc3c2n1[C@H](CN1CCOCC1)CO3 [WIN-552122] | 61.9% |
